Results taken from ChEMBL document CHEMBL1143662 (Bioorg Med Chem, 2007).
pKi: −log10 of the molar value.

Experiments:
[1] = molecular target: T1, Melatonin receptor type 1B (Homo sapiens) (UniProt P49286); experiment: Intrinsic activity at human cloned MT2 receptor expressed in […] cells by [35S]GTP-gamma-S binding assay relative to melatonin; type: functional, cell-based
T1 sequence (whole entry): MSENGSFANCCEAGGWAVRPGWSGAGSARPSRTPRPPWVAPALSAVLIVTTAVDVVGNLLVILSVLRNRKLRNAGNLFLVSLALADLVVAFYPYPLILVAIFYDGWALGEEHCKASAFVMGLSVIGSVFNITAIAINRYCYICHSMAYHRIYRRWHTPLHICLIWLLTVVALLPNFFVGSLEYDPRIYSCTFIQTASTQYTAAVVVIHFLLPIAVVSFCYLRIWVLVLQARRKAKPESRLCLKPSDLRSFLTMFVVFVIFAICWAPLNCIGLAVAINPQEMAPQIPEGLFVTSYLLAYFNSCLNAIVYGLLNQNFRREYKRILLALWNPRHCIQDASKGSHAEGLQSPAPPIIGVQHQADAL

[2] = molecular target: T2, Melatonin receptor type 1B (Homo sapiens, UniProt P49286); experiment: Displacement of 2-[125I]iodomelatonin from human cloned MT2 receptor expressed in […] cells; type: cell-based
T2 sequence (P49286 whole entry): T1 sequence (whole entry)

[3] = molecular target: T3, Melatonin receptor type 1A (Homo sapiens, UniProt P48039); experiment: Intrinsic activity at human cloned MT1 receptor expressed in […] cells by [35S]GTP-gamma-S binding assay relative to melatonin; type: functional, cell-based
T3 sequence (P48039 whole entry): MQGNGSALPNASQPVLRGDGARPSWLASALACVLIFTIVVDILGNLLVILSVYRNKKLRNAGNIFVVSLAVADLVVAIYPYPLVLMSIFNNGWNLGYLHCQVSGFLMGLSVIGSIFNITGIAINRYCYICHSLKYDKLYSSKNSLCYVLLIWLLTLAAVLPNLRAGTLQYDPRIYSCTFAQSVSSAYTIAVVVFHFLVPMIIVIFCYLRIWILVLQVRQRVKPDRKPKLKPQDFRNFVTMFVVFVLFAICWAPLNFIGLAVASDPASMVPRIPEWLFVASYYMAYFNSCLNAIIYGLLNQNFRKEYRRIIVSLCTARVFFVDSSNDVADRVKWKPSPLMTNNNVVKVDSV

[4] = molecular target: T3, Melatonin receptor type 1A; experiment: Displacement of 2-[125I]iodomelatonin from human cloned MT1 receptor expressed in […] cells; type: cell-based

| SMILES | Intrinsic activity [1] | pKi [2] | Intrinsic activity [3] | pKi [4] |
| --- | --- | --- | --- | --- |
| COc1ccc2[nH]c(C(=O)OCCCCCOC(=O)c3[nH]c4ccc(OC)cc4c3CCNC(C)=O)c(CCNC(C)=O)c2c1 | 0.93 | 7.20 | 1 | 7.70 |
| COc1ccc2[nH]c(C(=O)OCCCOC(=O)c3[nH]c4ccc(OC)cc4c3CCNC(C)=O)c(CCNC(C)=O)c2c1 | 0.8 | 7.84 | 0.77 | 8.02 |
| COc1ccc2[nH]cc(CCNC(=O)CCCCCCCCC(=O)NCCc3c[nH]c4ccc(OC)cc34)c2c1 | 0.79 | 6.24 | 0.81 | 6.41 |
| COc1ccc2[nH]cc(CCNC(=O)CCCCCC(=O)NCCc3c[nH]c4ccc(OC)cc34)c2c1 | 0.26 | 5.14 | 0.35 | 5.19 |
| CCCCCOC(=O)c1[nH]c2ccc(OC)cc2c1CCNC(C)=O | 0.23 | 8.32 | 0.06 | 7.15 |

Second part, the compound after the results:

| Intrinsic activity [1] | pKi [2] | Intrinsic activity [3] | pKi [4] | SMILES |
| --- | --- | --- | --- | --- |
| -0.17 | 8.11 | 0.33 | 7.22 | COc1ccc2[nH]c(C(=O)OCCCCCCCCCOC(=O)c3[nH]c4ccc(OC)cc4c3CCNC(C)=O)c(CCNC(C)=O)c2c1 |
| 0.38 | 7.70 | 0.75 | 7.08 | COc1ccc2[nH]c(C(=O)OCCCCCCCCCOC(=O)c3ccccc3)c(CCNC(C)=O)c2c1 |
| 0.9 | 8.10 | 1 | 8.10 | COc1ccc2[nH]c(C(=O)OCCCCCCCCOC(=O)c3[nH]c4ccc(OC)cc4c3CCNC(C)=O)c(CCNC(C)=O)c2c1 |
| 0.65 | 7.81 | 0.79 | 7.62 | COc1ccc2[nH]c(C(=O)OCCCCCCCCCCOC(=O)c3[nH]c4ccc(OC)cc4c3CCNC(C)=O)c(CCNC(C)=O)c2c1 |
| 0.64 | 7.36 | 0.72 | 7.59 | COc1ccc2[nH]c(C(=O)OCCCCCCCCCCCCOC(=O)c3[nH]c4ccc(OC)cc4c3CCNC(C)=O)c(CCNC(C)=O)c2c1 |
| 0.08 | 7.19 | 0.35 | 6.67 | COc1ccc2[nH]c(C(=O)OCCCCCCCOC(=O)c3[nH]c4ccc(OC)cc4c3CCNC(C)=O)c(CCNC(C)=O)c2c1 |
